Results as given in ChEMBL document CHEMBL3611986, “Reversal of P-gp and BCRP-mediated MDR by tariquidar derivatives” (Eur J Med Chem, 2015).
pIC50: −log10 of the molar value. Active and inactive are the calls of the source. The rule behind the calls is not given here.

Experiments:
[1] = tested on: HCT-116; assay: Cytotoxicity against human HCT116 cells assessed as cell viability after 48 hrs by MTT assay; type: cell-based; conditions: HCT-116, 48 h
[2] = tested on: SW-620; assay: Cytotoxicity against human SW620 cells assessed as cell viability after 48 hrs by MTT assay; type: cell-based; conditions: SW-620, 48 h
[3] = Cytotoxicity against human SW620/AD300 cells assessed as cell viability after 48 hrs by MTT assay; type: cell-based; conditions: SW-620, 48 h
[4] = Cytotoxicity against human CCD-18Co cells assessed as cell viability after 48 hrs by MTT assay; type: cell-based
[5] = Cytotoxicity against human HFE cells assessed as cell viability after 72 hrs by MTT assay; type: cell-based
[6] = tested on: Hepatocyte; assay: Cytotoxicity against rat hepatocytes assessed as cell viability after 72 hrs by MTT assay; type: cell-based; conditions: for pIC50: Rattus norvegicus, Hepatocyte
[7] = molecular target: Multidrug resistance-associated protein 1 (Homo sapiens, UniProt P33527); assay: Inhibition of MRP1 (unknown origin)-mediated calcein-AM efflux expressed in HEK293/MRP1 cells at 0.5 uM after 1 hr by flow cytometry; type: cell-based; conditions: hek293/mrp1, 1 h
[8] = molecular target: T1, ATP-dependent translocase ABCB1 (Homo sapiens, UniProt P08183); assay: Inhibition of p-glycoprotein-mediated rhodamine-123 efflux in human K562/p-gp cells at 0.5 uM after 1 hr by flow cytometry relative to tariquidar; type: cell-based; conditions: 1 h, 0.5 µM
[9] = molecular target: T1, ATP-dependent translocase ABCB1; assay: Inhibition of p-glycoprotein-mediated rhodamine-123 efflux in human K562/p-gp cells after 1 hr by flow cytometry; type: cell-based
[10] = tested on: K562; assay: Effect on rhodamine-123 efflux in wild type human K562 cells at 0.5 uM after 1 hr by flow cytometry; type: ADME, cell-based; conditions: k562, 1 h
[11] = Potentiation of paclitaxel-induced cytotoxicity against human LCC6 cells at 200 nM after 72 hrs by SRB assay relative to control; type: functional
[12] = molecular target: T1, ATP-dependent translocase ABCB1; assay: Inhibition of p-glycoprotein in human LCC6/MDR cells assessed as increase of paclitaxel-induced cytotoxicity at 200 nM after 72 hrs by SRB assay relative to control; type: cell-based; conditions: 0.2 µM
[13] = Cytotoxicity against human LCC6 cells at 200 nM after 72 hrs by SRB assay; type: cell-based; conditions: lcc6, 72 h, 0.2 µM
[14] = Cytotoxicity against human LCC6 cells expressing p-glycoprotein at 200 nM after 72 hrs by SRB assay; type: cell-based; conditions: lcc6, 72 h, 0.2 µM
[15] = tested on: K562; assay: Induction of UIC2 antibody binding to p-glycoprotein in human K562 cells at 0.5 uM preincubated for 10 mins followed by antibody addition measured after 45 mins by flow cytometry relative to tariquidar; type: cell-based
[16] = species: Homo sapiens; assay: Inhibition of p-glycoprotein (unknown origin) expressed in High five insect cell membranes assessed as ATP hydrolysis after 20 mins by colorimetric ATPase assay
[17] = molecular target: T1, ATP-dependent translocase ABCB1; assay: Inhibition of p-glycoprotein-mediated doxorubicin efflux in human K562/p-gp cells at 1 uM after 1 hr by flow cytometry; type: cell-based
[18] = molecular target: T2, Broad substrate specificity ATP-binding cassette transporter ABCG2 (Homo sapiens, UniProt Q9UNQ0); assay: Induction of 5D3 antibody binding to BCRP in human K562 cells at 0.5 uM preincubated for 10 mins followed by antibody addition measured after 45 mins by flow cytometry relative to tariquidar; type: cell-based; conditions: k562, 0.75 h
T2 sequence (Q9UNQ0 whole entry): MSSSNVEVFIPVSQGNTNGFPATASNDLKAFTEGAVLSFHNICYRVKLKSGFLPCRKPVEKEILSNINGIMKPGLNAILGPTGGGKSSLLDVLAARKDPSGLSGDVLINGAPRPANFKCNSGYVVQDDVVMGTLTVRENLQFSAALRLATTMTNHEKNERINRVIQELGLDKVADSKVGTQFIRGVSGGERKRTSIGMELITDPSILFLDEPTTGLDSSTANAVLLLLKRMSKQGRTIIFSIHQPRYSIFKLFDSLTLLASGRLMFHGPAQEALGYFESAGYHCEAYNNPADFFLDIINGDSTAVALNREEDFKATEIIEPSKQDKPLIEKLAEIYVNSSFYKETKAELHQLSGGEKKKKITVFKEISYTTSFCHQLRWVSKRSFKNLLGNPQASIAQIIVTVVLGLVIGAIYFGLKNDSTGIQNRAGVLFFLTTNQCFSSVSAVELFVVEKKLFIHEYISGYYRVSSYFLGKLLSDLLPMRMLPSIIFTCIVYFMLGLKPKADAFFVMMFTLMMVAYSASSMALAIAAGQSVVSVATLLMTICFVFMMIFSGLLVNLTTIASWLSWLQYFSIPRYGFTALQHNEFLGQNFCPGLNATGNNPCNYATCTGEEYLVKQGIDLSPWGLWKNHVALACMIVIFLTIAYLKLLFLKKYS

[19] = tested on: MCF7; assay: Potentiation of mitoxantrone-induced cytotoxicity against human MCF7 cells at 200 nM after 72 hrs by SRB assay relative to control; type: functional
[20] = molecular target: T2, Broad substrate specificity ATP-binding cassette transporter ABCG2; assay: Inhibition of BCRP in human MCF-7 FLV1000 cells assessed as increase of mitoxantrone-induced cytotoxicity at 200 nM after 72 hrs by SRB assay relative to control; type: cell-based; conditions: 0.2 µM
[21] = tested on: HepG2; assay: Potentiation of doxorubicin-induced cytotoxicity against human HepG2 cells at 200 nM after 72 hrs by SRB assay relative to control; type: functional
[22] = molecular target: T1, ATP-dependent translocase ABCB1; assay: Inhibition of p-glycoprotein in human HepG2 cells assessed as increase of doxorubicin-induced cytotoxicity at 200 nM after 72 hrs by SRB assay relative to control; type: cell-based; conditions: hepg2, 72 h, 0.2 µM
[23] = tested on: SW-620; assay: Potentiation of doxorubicin-induced cytotoxicity against human SW620 cells at 200 nM after 72 hrs by SRB assay relative to control; type: functional
[24] = molecular target: T1, ATP-dependent translocase ABCB1; assay: Inhibition of p-glycoprotein in human SW620/AD300 cells assessed as increase of doxorubicin-induced cytotoxicity at 200 nM after 72 hrs by SRB assay relative to control; type: cell-based; conditions: sw-620, 72 h, 0.2 µM
[25] = tested on: SW-620; assay: Cytotoxicity against human SW620 cells at 200 nM after 72 hrs by SRB assay; type: cell-based; conditions: sw-620, 72 h, 0.2 µM
[26] = Cytotoxicity against human SW620/AD300 cells expressing p-glycoprotein at 200 nM after 72 hrs by SRB assay; type: cell-based; conditions: sw-620, 72 h, 0.2 µM
[27] = tested on: HepG2; assay: Cytotoxicity against human HepG2 cells at 200 nM after 72 hrs by SRB assay; type: cell-based; conditions: hepg2, 72 h, 0.2 µM
[28] = tested on: HepG2; assay: Cytotoxicity against human HepG2 cells expressing p-glycoprotein at 200 nM after 72 hrs by SRB assay; type: cell-based; conditions: hepg2, 72 h, 0.2 µM
[29] = tested on: MCF7; assay: Cytotoxicity against human MCF7 cells at 200 nM after 72 hrs by SRB assay; type: cell-based; conditions: mcf7, 72 h, 0.2 µM
[30] = Cytotoxicity against human MCF-7 FLV1000 cells expressing BCRP at 200 nM after 72 hrs by SRB assay; type: ADME, cell-based; conditions: mcf-7 flv1000, 72 h, 0.2 µM

Multidrug resistance-associated protein 1, sequence (P33527 whole entry): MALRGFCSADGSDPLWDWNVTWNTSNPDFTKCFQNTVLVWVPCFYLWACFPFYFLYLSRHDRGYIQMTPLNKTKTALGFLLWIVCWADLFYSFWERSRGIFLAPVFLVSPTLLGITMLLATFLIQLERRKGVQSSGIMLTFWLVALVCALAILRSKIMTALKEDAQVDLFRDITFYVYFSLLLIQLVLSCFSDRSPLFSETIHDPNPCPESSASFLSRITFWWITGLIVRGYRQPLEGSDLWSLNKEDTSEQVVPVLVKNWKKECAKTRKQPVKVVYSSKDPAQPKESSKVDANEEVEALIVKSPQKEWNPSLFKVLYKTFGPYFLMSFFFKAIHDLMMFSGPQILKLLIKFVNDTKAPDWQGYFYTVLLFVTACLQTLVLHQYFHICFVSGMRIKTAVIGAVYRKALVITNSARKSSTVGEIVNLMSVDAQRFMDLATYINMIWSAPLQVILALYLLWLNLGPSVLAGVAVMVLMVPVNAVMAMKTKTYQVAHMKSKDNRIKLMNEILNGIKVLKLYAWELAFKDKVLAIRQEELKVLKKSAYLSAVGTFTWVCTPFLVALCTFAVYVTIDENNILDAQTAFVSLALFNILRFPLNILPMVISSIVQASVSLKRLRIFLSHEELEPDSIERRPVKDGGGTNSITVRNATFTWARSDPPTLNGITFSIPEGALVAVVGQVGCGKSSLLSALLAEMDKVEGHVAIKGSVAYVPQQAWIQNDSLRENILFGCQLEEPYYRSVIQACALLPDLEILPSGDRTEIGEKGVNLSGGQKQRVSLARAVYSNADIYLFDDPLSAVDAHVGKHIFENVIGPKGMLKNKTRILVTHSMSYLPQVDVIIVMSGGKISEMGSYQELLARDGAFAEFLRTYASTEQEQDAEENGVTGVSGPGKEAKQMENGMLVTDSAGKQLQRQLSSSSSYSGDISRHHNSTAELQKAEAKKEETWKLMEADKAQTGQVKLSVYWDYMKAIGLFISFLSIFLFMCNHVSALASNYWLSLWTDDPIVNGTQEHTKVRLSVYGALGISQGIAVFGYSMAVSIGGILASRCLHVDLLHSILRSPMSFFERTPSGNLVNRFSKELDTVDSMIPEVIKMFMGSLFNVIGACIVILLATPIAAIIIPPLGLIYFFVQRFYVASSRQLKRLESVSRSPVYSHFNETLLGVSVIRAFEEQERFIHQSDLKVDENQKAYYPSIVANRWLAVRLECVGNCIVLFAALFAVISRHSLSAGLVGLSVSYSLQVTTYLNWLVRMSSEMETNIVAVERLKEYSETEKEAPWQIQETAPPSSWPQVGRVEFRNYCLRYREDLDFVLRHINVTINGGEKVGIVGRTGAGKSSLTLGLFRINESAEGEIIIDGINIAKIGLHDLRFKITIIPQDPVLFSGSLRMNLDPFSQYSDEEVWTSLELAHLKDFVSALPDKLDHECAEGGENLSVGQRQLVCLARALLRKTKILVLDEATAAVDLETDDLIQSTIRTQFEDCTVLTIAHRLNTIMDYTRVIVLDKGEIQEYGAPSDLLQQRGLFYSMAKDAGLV
T1 sequence (P08183 whole entry): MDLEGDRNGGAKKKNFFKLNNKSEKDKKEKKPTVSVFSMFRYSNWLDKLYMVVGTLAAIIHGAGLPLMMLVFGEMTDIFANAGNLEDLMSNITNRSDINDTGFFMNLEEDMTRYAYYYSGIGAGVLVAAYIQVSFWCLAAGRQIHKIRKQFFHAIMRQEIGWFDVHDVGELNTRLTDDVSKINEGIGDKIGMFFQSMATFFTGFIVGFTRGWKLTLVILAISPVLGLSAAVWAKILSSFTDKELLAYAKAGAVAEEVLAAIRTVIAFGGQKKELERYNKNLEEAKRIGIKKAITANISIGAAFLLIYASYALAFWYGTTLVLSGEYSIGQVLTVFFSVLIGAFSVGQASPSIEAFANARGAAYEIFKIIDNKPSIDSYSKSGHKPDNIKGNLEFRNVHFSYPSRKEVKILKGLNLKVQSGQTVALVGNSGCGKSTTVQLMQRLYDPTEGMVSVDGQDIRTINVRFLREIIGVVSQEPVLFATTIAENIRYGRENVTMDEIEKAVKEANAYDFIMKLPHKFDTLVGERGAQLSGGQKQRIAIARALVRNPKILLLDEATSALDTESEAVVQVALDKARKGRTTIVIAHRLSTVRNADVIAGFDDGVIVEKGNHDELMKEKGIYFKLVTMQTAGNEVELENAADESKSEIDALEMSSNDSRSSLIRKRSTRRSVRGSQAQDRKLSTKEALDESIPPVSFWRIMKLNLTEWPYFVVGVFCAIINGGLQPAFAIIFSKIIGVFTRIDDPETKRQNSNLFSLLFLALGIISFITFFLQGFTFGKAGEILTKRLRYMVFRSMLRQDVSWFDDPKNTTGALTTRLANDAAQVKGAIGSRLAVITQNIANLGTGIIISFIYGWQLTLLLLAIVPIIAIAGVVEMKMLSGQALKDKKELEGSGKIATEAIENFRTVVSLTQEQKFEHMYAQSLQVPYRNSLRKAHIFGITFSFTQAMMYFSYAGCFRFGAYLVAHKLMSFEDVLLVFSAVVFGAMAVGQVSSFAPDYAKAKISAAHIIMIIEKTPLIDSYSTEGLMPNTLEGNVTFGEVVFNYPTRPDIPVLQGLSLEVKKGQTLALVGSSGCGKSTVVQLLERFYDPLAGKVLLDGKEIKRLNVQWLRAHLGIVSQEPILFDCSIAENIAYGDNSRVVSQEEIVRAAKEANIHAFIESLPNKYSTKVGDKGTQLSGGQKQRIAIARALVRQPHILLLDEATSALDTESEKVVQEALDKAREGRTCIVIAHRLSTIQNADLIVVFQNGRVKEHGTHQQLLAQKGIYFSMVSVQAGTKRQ

Row | inhibition (INH) [7] | Structure (SMILES) | pIC50 [1] | pIC50 [2] | pIC50 [3] | pIC50 [4] | pIC50 [5] | pIC50 [6] | also measured
1 | Not Active | COc1cc2c(cc1OC)CN(CCc1ccc(NC(=O)c3cc(OC)c(OC)cc3NS(=O)(=O)c3ccc(C)cc3)cc1)CC2 | < 4.00 | < 4.00 | < 4.00 | < 4.00 | < 4.00 | 4.00 | –
2 | Not Active | COc1cc2c(cc1OC)CN(CCc1ccc(NC(=O)c3ccccc3NS(=O)(=O)c3ccc(F)cc3)cc1)CC2 | < 4.00 | < 4.00 | < 4.00 | < 4.00 | < 4.00 | – | –
3 | Not Active | COc1cc2c(cc1OC)CN(CCc1ccc(NC(=O)c3cc(OC)c(OC)cc3NS(=O)(=O)c3ccc(C(C)(C)C)cc3)cc1)CC2 | < 4.00 | < 4.00 | < 4.00 | < 4.00 | < 5.30 | – | inhibition (INH) [8]: Active; inhibition (INH) [9]: Dose-dependent effect; Activity [10]: Non-toxic; fold change (FC) [11]: 1; fold change (FC) [12]: 21; Activity [13]: Non-toxic; Activity [14]: Non-toxic; Activity [15]: 70.7%; inhibition [16]: Dose-dependent effect
4 | Not Active | COc1cc2c(cc1OC)CN(CCc1ccc(NC(=O)c3ccccc3NS(=O)(=O)c3cc(Cl)ccc3Cl)cc1)CC2 | 4.60 | < 4.00 | < 4.00 | < 4.00 | < 4.00 | – | –
5 | Not Active | COc1cc2c(cc1OC)CN(CCc1ccc(NC(=O)c3ccccc3N(S(=O)(=O)c3ccccc3)S(=O)(=O)c3ccccc3)cc1)CC2 | < 4.00 | < 4.00 | < 4.00 | < 4.00 | < 5.30 | – | Activity ([6]; rat, hepatocytes): Non-toxic; inhibition (INH) [8]: Active; inhibition (INH) [9]: Dose-dependent effect; Activity [10]: Non-toxic; inhibition (INH) [17]: Active
6 | Not Active | COc1cc2c(cc1OC)CN(CCc1ccc(NC(=O)c3ccccc3NS(=O)(=O)c3ccccc3F)cc1)CC2 | < 4.00 | < 4.00 | < 4.00 | < 4.00 | < 4.00 | 4.00 | –
7 | Not Active | COc1cc2c(cc1OC)CN(CCc1ccc(NC(=O)c3ccccc3NS(=O)(=O)c3ccccc3C(F)(F)F)cc1)CC2 | < 4.00 | < 4.00 | < 4.00 | < 4.00 | < 4.00 | 4.00 | –
8 | Not Active | COc1ccc(S(=O)(=O)Nc2ccccc2C(=O)Nc2ccc(CCN3CCc4cc(OC)c(OC)cc4C3)cc2)cc1 | < 4.00 | < 4.00 | < 4.00 | < 4.00 | < 4.00 | – | –
9 | Not Active | COc1cc2c(cc1OC)CN(CCc1ccc(NC(=O)c3ccccc3NS(=O)(=O)c3ccc(NC(C)=O)cc3)cc1)CC2 | < 4.00 | < 4.00 | < 4.00 | < 4.00 | < 4.00 | – | –
10 | Not Active | COc1cc2c(cc1OC)CN(CCc1ccc(NC(=O)c3ccccc3NC(=O)OCC3c4ccccc4-c4ccccc43)cc1)CC2 | < 4.00 | < 4.00 | < 4.00 | < 4.00 | < 4.00 | – | –

Continued, molecule first:

Row | Structure (SMILES) | inhibition (INH) [7] | pIC50 [1] | pIC50 [2] | pIC50 [3] | pIC50 [4] | pIC50 [5] | pIC50 [6] | also measured
11 | COc1cc2c(cc1OC)CN(CCc1ccc(NC(=O)c3ccccc3NS(=O)(=O)c3ccc(C(F)(F)F)cc3)cc1)CC2 | Not Active | 4.60 | < 4.00 | < 4.00 | < 4.00 | < 4.00 | 4.30 | –
12 | COc1cc2c(cc1OC)CN(CCc1ccc(NC(=O)c3ccccc3NS(=O)(=O)c3ccc(Cl)cc3)cc1)CC2 | – | < 4.00 | < 4.00 | < 4.00 | < 4.00 | < 5.30 | – | –
13 | CCCS(=O)(=O)Nc1ccccc1C(=O)Nc1ccc(CCN2CCc3cc(OC)c(OC)cc3C2)cc1 | Not Active | < 4.00 | < 4.00 | < 4.00 | < 4.00 | < 4.00 | – | –
14 | COc1cc2c(cc1OC)CN(CCc1ccc(NC(=O)c3ccccc3NS(=O)(=O)c3c(C)cc(C)cc3C)cc1)CC2 | Not Active | < 4.00 | < 4.00 | < 4.00 | < 4.00 | < 4.00 | 4.00 | –
15 | CCCCCCCCCCCC(=O)Nc1ccccc1C(=O)Nc1ccc(CCN2CCc3cc(OC)c(OC)cc3C2)cc1 | Not Active | < 4.00 | < 4.00 | < 4.00 | < 4.00 | < 4.00 | – | –
16 | COc1cc2c(cc1OC)CN(CCc1ccc(NC(=O)c3cc(OC)c(OC)cc3NS(=O)(=O)c3ccc(C(F)(F)F)cc3)cc1)CC2 | Not Active | 4.60 | < 4.00 | < 4.00 | < 4.00 | < 4.00 | 4.30 | –
17 | COc1cc2c(cc1OC)CN(CCc1ccc(NC(=O)c3ccccc3NS(=O)(=O)c3ccc(C)cc3)cc1)CC2 | Not Active | < 4.00 | < 4.00 | < 4.00 | < 4.00 | < 4.00 | – | Activity [15]: inactive; Activity [18]: Not Active
18 | COc1cc2c(cc1OC)CN(CCc1ccc(NC(=O)c3ccccc3NS(=O)(=O)c3cccc4c(N(C)C)cccc34)cc1)CC2 | Not Active | < 4.00 | < 4.00 | < 4.00 | < 4.00 | < 4.00 | – | –
19 | COc1cc2c(cc1OC)CN(CCc1ccc(NC(=O)c3cc(OC)c(OC)cc3NC(=O)c3cnc4ccccc4c3)cc1)CC2 [TARIQUIDAR] | Not Active | 4.90 | 4.60 | 4.60 | 4.60 | 5.89 | 4.60 | fold change (FC) [11]: 1.1; fold change (FC) [12]: 1.9; fold change (FC) [19]: 0.8; fold change (FC) [20]: 3.7; fold change (FC) [21]: 0.23; fold change (FC) [22]: 0.32; fold change (FC) [23]: 0.57; fold change (FC) [24]: 1.85; Activity [25]: Non-toxic; Activity [26]: Non-toxic; Activity [27]: Non-toxic; Activity [28]: Non-toxic; Activity [29]: Non-toxic; Activity [30]: Non-toxic; Activity [13]: Non-toxic; Activity [14]: Non-toxic
